Results published in patent publication US20100080852A1, “PHAMACEUTICAL COMPOSITION COMPRISING NANOPARTICLES AND CASEIN” (priority 2007, published 2010).
Converted amounts (≈) assume the structure as drawn. Like-named read-outs stand apart in the source and are kept apart here.

Tests used:
[1] = Log P value of the drugs; type: physicochemical; conditions: octanol/water
Text: The first property of hydrophobic drugs is that they are extremely hydrophobic. Log P, defined as the base 10 logarithm of the ratio of the drug solubility in octanol to the drug solubility in water, is a widely accepted measure of hydrophobicity. By “extremely hydrophobic” is meant that the Log P value of the drug is at least 4.0, preferably at least 4.5, and most preferably at least 5.0. Log P may be measured experimentally or calculated using methods known in the art. When using a calculated value for Log P, the highest value calculated using any generally accepted method for calculating Log P is used. Calculated Log P values are often referred to by the calculation method, such as Clog P, Alog P, and Mlog P. The Log P may also be estimated using fragmentation methods, such as Crippen's fragmentation method (27 J. Chem. Inf. Comput. Sci. 21 (1987)); Viswanadhan's fragmentation method (29 J. Chem. Inf. Comput. Sci. 163 (1989)); or Broto's fragmentation method (19 Eur. J. Med. Chem.-Chim. Theor. 71 (1984). Preferably the Log P value is calculated by using the average value estimated using Crippen's, Viswanadhan's, and Broto's fragmentation methods.

[2] = Solubility of the drugs in MFD solution, PBS or water; type: physicochemical
[3] = MFD solution, fassgf or other biorelevant, read-out: solubility in MFD solution

logP ([1]; read-out: Log P value) | solubility [2, 3] [µg/mL] | solubility ([2]; PBS, aqueous buffer, read-out: solubility in PBS) [µg/mL] | Compound | logP [1]
3.75 | ~40 (≈ 105 µM) |  | Cc1ccc(-c2cc(C(F)(F)F)nn2-c2ccc(S(N)(=O)=O)cc2)cc1 [Drug 1, 4-[5-(4-methylphenyl)-3-(trifluoromethyl)-1H-pyrazol-1-yl]benzenesulfonamide] | 
10 |  | < 0.1 | CCc1cc(Oc2cccc(N(Cc3cccc(OC(F)(F)C(F)F)c3)C[C@@H](O)C(F)(F)F)c2)ccc1Cl [Drug 2, (2R)-3-[[3-(4-chloro-3-ethylphenoxy)phenyl][[3-(1,1,2,2-tetrafluoroethoxy)phenyl]methyl]amino]-1,1,1-trifluoro-2-propanol] | 
 | ~11 (≈ 18.4 µM) |  | CC[C@@H]1C[C@H](N(Cc2cc(C(F)(F)F)cc(C(F)(F)F)c2)C(C)=O)c2cc(C(F)(F)F)ccc2N1C(=O)OC(C)C [Drug 3, [2R,4S] 4-[acetyl-(3,5-bis-trifluoromethyl-benzyl)-amino]-2-ethyl-6-trifluoromethyl-3,4-dihydro-2H-quinoline-1-carboxylic acid isopropyl ester] | 
 |  |  | c1cc[c]([Bi]([c]2ccccc2)[c]2ccccc2)cc1 [Drug 5, triphenyl bismuth] | 6
